Source: ChEMBL document CHEMBL1201862, “PubChem BioAssay data set” (2004)
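Dose response: 5 concentrations. Exposure: 48 h. Format: 96-well plates. Endpoint: linear interpolation; highest concentration if not reached. At the GI50, growth is halved.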 Activity calls are given as the source filed them. Rule as the data show it: active = GI50 up to about 1.1 µM and inactive = higher.

Experiments:
Experiment in all cases: NCI-60 cell line screen, 48 h
OVCAR-4 = test system: OVCAR-4
HT-29 = test system: HT-29
LOX IMVI = test system: LOX IMVI
KM12 = test system: KM12
A498 = test system: A498
NCI-H522 = test system: NCI-H522
TK-10 = test system: TK-10
OVCAR-8 = test system: OVCAR-8
MOLT-4 = test system: MOLT-4
HOP-62 = test system: HOP-62
CAKI-1 = test system: CAKI-1
HOP-92 = test system: HOP-92
NCI-H226 = test system: NCI-H226
SN12C = test system: SN12C
SNB-19 = test system: SNB-19
Hs-578T = test system: Hs-578T
SF-268 = test system: SF-268
NCI-H23 = test system: NCI-H23
RPMI-8226 = test system: RPMI-8226

Compound | GI50 (OVCAR-4) | GI50 (HT-29) | GI50 (LOX IMVI) | GI50 (KM12) | GI50 (A498) | GI50 (NCI-H522) | GI50 (TK-10) | GI50 (OVCAR-8) | GI50 (MOLT-4) | GI50 (HOP-62) | GI50 (CAKI-1) | GI50 (HOP-92) | GI50 (NCI-H226) | GI50 (SN12C) | GI50 (SNB-19) | GI50 (Hs-578T) | GI50 (SF-268) | GI50 (NCI-H23) | GI50 (RPMI-8226)
CC[C@@H](C)[C@H](NC(=O)[C@H](Cc1ccccc1)NCC(F)(F)F)C(=O)OC(C)(C)C | 82.2 µM (inactive) | > 100 µM (inactive) | > 100 µM (inactive) | > 100 µM (inactive) | > 100 µM (inactive) | > 100 µM (inactive) | > 100 µM (inactive) | > 100 µM (inactive) | 67.3 µM (inactive) | > 100 µM (inactive) | > 100 µM (inactive) | > 100 µM (inactive) | 19.6 µM (inactive) | > 100 µM (inactive) | > 100 µM (inactive) | > 100 µM (inactive) | > 100 µM (inactive) | > 100 µM (inactive) | 
CCCn1c(=O)c2ccccc2[n+]2c(-c3ccc([N+](=O)[O-])cc3)csc12 | 17.9 µM (inactive) | 25 µM (inactive) | 22.1 µM (inactive) | 18.8 µM (inactive) | 25.2 µM (inactive) | 18 µM (inactive) | > 10 µM (inactive) | 13.6 µM (inactive) | 30.6 µM (inactive) | 18.9 µM (inactive) | 40.9 µM (inactive) | 32.4 µM (inactive) | 29.4 µM (inactive) | 41.3 µM (inactive) | 25.7 µM (inactive) | 23.3 µM (inactive) | 41.8 µM (inactive) | 31 µM (inactive) | 18 µM (inactive)
CSc1nc(C)c(CCOC(C)=O)c(Cl)n1 | > 100 µM (inactive) | > 100 µM (inactive) | > 100 µM (inactive) | > 100 µM (inactive) | 48 µM (inactive) | > 100 µM (inactive) | > 100 µM (inactive) | > 100 µM (inactive) | > 100 µM (inactive) | > 100 µM (inactive) | > 100 µM (inactive) | > 100 µM (inactive) | > 100 µM (inactive) | > 100 µM (inactive) | > 100 µM (inactive) | > 100 µM (inactive) | > 100 µM (inactive) | > 100 µM (inactive) | > 100 µM (inactive)
COc1ccc(-c2cc(O)c3cc(OC)c(OC)cc3n2)cc1OC | > 100 µM (inactive) | > 100 µM (inactive) | > 100 µM (inactive) | > 100 µM (inactive) | > 100 µM (inactive) | > 100 µM (inactive) | > 100 µM (inactive) | > 100 µM (inactive) | > 100 µM (inactive) | 37.7 µM (inactive) | > 100 µM (inactive) | 64.4 µM (inactive) | > 100 µM (inactive) | > 100 µM (inactive) | > 100 µM (inactive) | 69.8 µM (inactive) | > 100 µM (inactive) | > 100 µM (inactive) | > 100 µM (inactive)
Cc1nc2ccccc2n1Cc1ccc(NC(=S)Nc2ccccc2)cc1 | 28.6 µM (inactive) | 32.8 µM (inactive) | 70.6 µM (inactive) | 54.6 µM (inactive) | 28.7 µM (inactive) | 21.9 µM (inactive) | > 100 µM (inactive) | 60.1 µM (inactive) | 23.3 µM (inactive) | > 100 µM (inactive) | 77.4 µM (inactive) | 61.9 µM (inactive) | 82.4 µM (inactive) | 76.4 µM (inactive) | > 100 µM (inactive) | > 100 µM (inactive) | 91 µM (inactive) | 83.9 µM (inactive) | 50 µM (inactive)
COc1ccccc1/N=N/C(=N/NC(=O)c1ccc(C)cc1)c1ccc(N(CCC#N)CCC#N)cc1OC | 31.9 µM (inactive) | 33.1 µM (inactive) | 33.4 µM (inactive) | 26.8 µM (inactive) | 22.2 µM (inactive) | 33.7 µM (inactive) | 68.5 µM (inactive) | 32.5 µM (inactive) | 19.1 µM (inactive) | 40.5 µM (inactive) | 52.7 µM (inactive) | 27.4 µM (inactive) | 80 µM (inactive) | 28.3 µM (inactive) | 30.8 µM (inactive) | 56.4 µM (inactive) | 30.5 µM (inactive) | 32.4 µM (inactive) | 14 µM (inactive)
CC(CC(=O)O)(CC(=O)O)C(=O)O | > 100 µM (inactive) | > 100 µM (inactive) | > 100 µM (inactive) | > 100 µM (inactive) | > 100 µM (inactive) | > 100 µM (inactive) | > 100 µM (inactive) | > 100 µM (inactive) | > 100 µM (inactive) | > 100 µM (inactive) | > 100 µM (inactive) | > 100 µM (inactive) |  | > 100 µM (inactive) | > 100 µM (inactive) | > 100 µM (inactive) | > 100 µM (inactive) | > 100 µM (inactive) | > 100 µM (inactive)
COC1=CC(=O)c2c(O)ccc(O)c2C1=O | 13.6 µM (inactive) | 1.72 µM (inactive) |  | 6.93 µM (inactive) | 17.8 µM (inactive) | 11.5 µM (inactive) | 14.7 µM (inactive) | 21.4 µM (inactive) | 13.8 µM (inactive) | 2.19 µM (inactive) |  | 18.6 µM (inactive) | 21.6 µM (inactive) | 2.65 µM (inactive) | 4.75 µM (inactive) | 6.4 µM (inactive) | 7.26 µM (inactive) | 2.64 µM (inactive) | 9.2 µM (inactive)
CC1(C)O[C@H]2OC(CO)C(N=[N+]=[N-])[C@H]2O1 (some centres not stated) | > 100 µM (inactive) | > 100 µM (inactive) | > 100 µM (inactive) | > 100 µM (inactive) | > 100 µM (inactive) | > 100 µM (inactive) | > 100 µM (inactive) | > 100 µM (inactive) | > 100 µM (inactive) | > 100 µM (inactive) | > 100 µM (inactive) | > 100 µM (inactive) |  | > 100 µM (inactive) | > 100 µM (inactive) | > 100 µM (inactive) | > 100 µM (inactive) | > 100 µM (inactive) | > 100 µM (inactive)
C#CC(O)Cc1ccc(OC)c2occc12 (configuration not stated) | > 100 µM (inactive) | > 100 µM (inactive) | > 100 µM (inactive) | > 100 µM (inactive) | > 100 µM (inactive) | > 100 µM (inactive) | > 100 µM (inactive) | > 100 µM (inactive) |  | > 100 µM (inactive) | > 100 µM (inactive) | > 100 µM (inactive) | > 100 µM (inactive) | > 100 µM (inactive) | > 100 µM (inactive) | > 100 µM (inactive) | > 100 µM (inactive) | > 100 µM (inactive) | > 100 µM (inactive)
O=[N+]([O-])c1ccc(C(O)(C#CCN2CCCC2)c2ccccc2)cc1 (configuration not stated) | 31.5 µM (inactive) | 17 µM (inactive) | 16.2 µM (inactive) | 41.8 µM (inactive) | 23.3 µM (inactive) | 22.4 µM (inactive) | 52.1 µM (inactive) | 36.6 µM (inactive) | 25.8 µM (inactive) | 92.5 µM (inactive) |  | 10.2 µM (inactive) | 81.5 µM (inactive) | 38.3 µM (inactive) | 98.2 µM (inactive) | 28.9 µM (inactive) | 27 µM (inactive) | 96.8 µM (inactive) | 26.7 µM (inactive)
Cn1ccc(C(=O)NCCOCCNC(=O)c2ccn(C)c(=O)c2O)c(O)c1=O | > 100 µM (inactive) | > 100 µM (inactive) | > 100 µM (inactive) | 18.2 µM (inactive) | > 100 µM (inactive) | > 100 µM (inactive) | > 100 µM (inactive) | > 100 µM (inactive) |  |  | > 100 µM (inactive) | > 100 µM (inactive) | > 100 µM (inactive) | > 100 µM (inactive) | > 100 µM (inactive) | > 100 µM (inactive) | > 100 µM (inactive) | > 100 µM (inactive) | > 100 µM (inactive)
CCCNC(=O)c1cc(NC(=O)c2cc(NC(=O)CCS(=O)(=O)OC)cn2C)cn1C | 26.5 µM (inactive) | 22 µM (inactive) | 14.6 µM (inactive) | 21.9 µM (inactive) | > 69.3 µM (inactive) | 1.87 µM (inactive) | 67.5 µM (inactive) | 15.2 µM (inactive) | 17.5 µM (inactive) | 25.8 µM (inactive) | > 52 µM (inactive) | 3.76 µM (inactive) |  | 13.8 µM (inactive) | 2.21 µM (inactive) | 32.7 µM (inactive) |  | 17.4 µM (inactive) | > 100 µM (inactive)
CC1C[C@]2(C)C(=S)Nc3ccccc3[C@@H]2Nc2ccccc21 (some centres not stated) | 17.8 µM (inactive) | 11.9 µM (inactive) | 13.4 µM (inactive) | 15.5 µM (inactive) | 21.5 µM (inactive) |  | 19 µM (inactive) | 15.9 µM (inactive) | 17.5 µM (inactive) | 17.7 µM (inactive) | 25.4 µM (inactive) | 12.2 µM (inactive) | 17.3 µM (inactive) | 17.9 µM (inactive) | 21.7 µM (inactive) | 35.2 µM (inactive) | 1.11 µM (active) | 15.2 µM (inactive) | 23.4 µM (inactive)
CO/C=C(/C(=O)OC)c1ccccc1Oc1c(F)c(F)c(F)c(F)c1F | 24.4 µM (inactive) | 32.4 µM (inactive) | 32.4 µM (inactive) | 24 µM (inactive) | 36.7 µM (inactive) |  | 28.5 µM (inactive) | 80.5 µM (inactive) | 7.69 µM (inactive) | 53.6 µM (inactive) | 12.8 µM (inactive) | 19.6 µM (inactive) | 38.2 µM (inactive) | 42.9 µM (inactive) | 57.4 µM (inactive) | 25.8 µM (inactive) | 50.1 µM (inactive) | 37.7 µM (inactive) | 16.8 µM (inactive)
